Data taken from article PMC6688628, “N-Substituted Pyrrole Derivative 12m Inhibits HIV-1 Entry by Targeting Gp41 of HIV-1 Envelope Glycoprotein” (Frontiers in Pharmacology, 2019).
Read-outs that look alike come from different tables or passages of the source.

How the values were obtained:
HIV-1 92UG029 = assay: Anti-HIV-1 activity, primary strain 92UG029; type: cell-based; conditions: luciferase readout, mean ± SD
HIV-1 93/BR/020 = assay: microbe, parasite or virus in culture; type: cell-based
Method: (§1) The HIV-1 replication-inhibiting activity of compounds was determined as previously described ([Li et al., 2013]). Briefly, 1 × 10^4 TZM-bl or MT-2 cells were infected with primary HIV-1 strains or T20-resistant HIV-1 strains (100 TCID50) in 200 µl of RPMI-1640 medium containing 10% FBS in the presence or absence of compounds at graded concentrations for 12 h. The culture medium was replaced with fresh medium without the compounds. After culture for an additional 48 h, supernatants or cells were collected from each well. For the primary HIV-1 strains, the cells were treated using a luciferase kit. Briefly, the cells were lysed with the lysis reagent and were transferred into a 96-well flat-bottom luminometer plate after three washes with phosphate-buffered saline (PBS) (Costar Corning Inc., Corning, NY), followed by addition of the luciferase substrate included in the luciferase kit (Promega Corp., Madison, WI). The luciferase activity was measured immediately by an Ultra 384 microplate reader (Tecan, Research Triangle Park, NC). T20 was used as a positive control. For the T20-resistant HIV-1 strains, 100 µl of culture supernatant was mixed with 100 µl of 5% Triton X-100. Then, those virus lysates were assayed for p24 antigen by enzyme linked immunosorbent assay (ELISA) as previously described ([Li et al., 2010]). Absorbance at 450 nm was recorded in an ELISA reader (Ultra 384, Tecan). EC50 values were calculated using the computer program CalcuSyn ([Chou and Talalay, 1984]).

HIV-1 BCF02 = assay: microbe, parasite or virus in culture; type: cell-based
Method: as §1

HIV-1 US4 (GS 007) = assay: microbe, parasite or virus in culture; type: cell-based
Method: as §1

HIV-1 NL4-3D36G = type: cell-based; conditions: T20-sensitive parent strain, p24 ELISA, mean ± SD
[1] = tested on: HIV-1JR-FL Env mutant K574A pseudovirus; type: cell-based; conditions: compared with wild-type HIV-1JR-FL pseudovirus
[2] = tested on: HIV-1 NL4-3(36G)V38A,N42D; conditions: T20-resistant NL4-3(36G)V38A,N42D; p24 ELISA; mean ± SD
HIV-1 NL4-3(36G)V38A = conditions: T20-resistant NL4-3(36G)V38A; p24 ELISA; mean ± SD
[3] = tested on: HIV-1 NL4-3(36G)N42T,N43K; conditions: T20-resistant NL4-3(36G)N42T,N43K; p24 ELISA; mean ± SD
[4] = tested on: HIV-1 NL4-3(36G)V38E,N42S; conditions: T20-resistant NL4-3(36G)V38E,N42S; p24 ELISA; mean ± SD
[5] = tested on: HIV-1 NL4-3(36G)V38A,N42T; conditions: T20-resistant NL4-3(36G)V38A,N42T; p24 ELISA; mean ± SD
[6] = tested on: R5 and X4 HIV-1 strains (Env pseudotyped viruses); type: cell-based
HIV-1 = tested on: HIV-1; design: method as in Jiang et al., 2004; conditions: inhibition of HIV-1 entry; ref Jiang et al., 2004; cited from earlier work

Row | Molecule | IC50 [2] [µM] | IC90 [2] [µM] | IC50 (HIV-1 NL4-3(36G)V38A) [µM] | IC90 (HIV-1 NL4-3(36G)V38A) [µM] | IC50 [3] [µM] | IC90 [3] [µM] | IC50 [4] [µM] | IC90 [4] [µM] | IC50 [5] [µM] | IC90 [5] [µM] | further results
1 | COc1ccc(S(=O)(=O)[O-])cc1N=Nc1c(S(=O)(=O)[O-])cc2cc(Nc3nc(Nc4ccccc4)nc(Nc4cc(C)c(N=Nc5cc(S(=O)(=O)[O-])cc6cc(S(=O)(=O)[O-])cc(O)c56)cc4OC)n3)ccc2c1O.[Na+].[Na+].[Na+].[Na+] [ADS-J1] | 0.65 ± 0.18 | 8.2 ± 2.65 | 0.16 ± 0.04 | 0.4 ± 0.05 | 0.61 ± 0.25 | 4.24 ± 1.21 | 0.11 ± 0.01 | 0.33 ± 0.01 | 0.62 ± 0.16 | 8.39 ± 1.55 | IC50 (HIV-1 92UG029): 20.6 ± 5.29 µM; IC90 (HIV-1 92UG029): 32.1 ± 6.71 µM; IC50 (HIV-1 93/BR/020; primary strain 93/BR/020, luciferase readout, mean ± SD): 13 ± 3.49 µM; IC90 (HIV-1 93/BR/020; primary strain 93/BR/020, luciferase readout, mean ± SD, read-out: IC90): 26.9 ± 4.3 µM; IC50 (HIV-1 BCF02; primary strain BCF02, luciferase readout, mean ± SD, read-out: IC50): 1.45 ± 0.26 µM; IC90 (HIV-1 BCF02; primary strain BCF02, luciferase readout, mean ± SD, read-out: IC90): 3.06 ± 0.42 µM; IC50 (HIV-1 US4 (GS 007); primary strain US4 (GS 007), luciferase readout, mean ± SD, read-out: IC50): 4.62 ± 0.76 µM; IC90 (HIV-1 US4 (GS 007); primary strain US4 (GS 007), luciferase readout, mean ± SD, read-out: IC90): 9.9 ± 1.44 µM; IC50 (HIV-1 NL4-3D36G): 0.94 ± 0.03 µM; IC90 (HIV-1 NL4-3D36G): 2.03 ± 0.2 µM; inhibitory activity against K574A mutant pseudovirus [1]: exerted inhibitory activity
2 | c1cc(CN2CCCNCCNCCCNCC2)ccc1CN1CCCNCCNCCCNCC1 [AMD3100] |  |  |  |  |  |  |  |  |  |  | inhibitory activity against the R5 and X4 HIV-1 strains [6]: strong inhibitory activity
3 | O=C(O)c1cc(-n2cccc2)ccc1Cl [NB-64] |  |  |  |  |  |  |  |  |  |  | effective concentration for 50% inhibition (EC50) (HIV-1): on the µM level
4 | Enfuvirtide | 0.895 ± 0.31 | > 2 | 0.279 ± 0.082 | > 2 | > 2 | > 2 | > 2 | > 2 | > 2 | > 2 | IC90 (HIV-1 93/BR/020; 93/BR/020, 12 h): 0.313 ± 0.022 µM; IC50 (HIV-1 BCF02; BCF02, 12 h): 0.05 ± 0.022 µM; IC90 (HIV-1 BCF02; BCF02, 12 h): 0.502 ± 0.338 µM; IC50 (HIV-1 US4 (GS 007); US4 (GS 007, 12 h)): 0.059 ± 0.01 µM; IC90 (HIV-1 US4 (GS 007); US4 (GS 007, 12 h)): 1.43 ± 0.443 µM; inhibitory activity against the R5 and X4 HIV-1 strains ([6]; positive controls, single-cycle pseudovirus infection): strong inhibitory activity
